Test: Inhibition of first mitotic cell division in Asterina pectinifera fertilized eggs assessed as minimum effective concentration
Format: functional
Conditions: Patiria pectinifera, Egg; read-out: MEC

SMILES	minimal effective concentration [µg/mL]
C/C=C\c1cc(C)ccc1/C(C)=C\C(C)=C\CCC[C@H](O)CNC(C)=O	2.5
C=CCc1cc(C)ccc1/C(C)=C\C(C)=C\CCC[C@H](O)CNC(C)=O	2.5

Source: ChEMBL document CHEMBL1146464, “Two new analogues of the cytotoxic substance BE-52211 from Streptomyces sp” (2004)
